# Results: US9693556B2, “Herbicidal pyridazinone derivatives” (SYNGENTA LIMITED, priority 2011, dated 2017)
# How the values were obtained:
# Format in all cases: in vivo
# [1] = test system: Ipomoea hederacea (IPOHE); assay: Post-emergence herbicidal glasshouse test on Ipomoea hederacea; conditions: post-emergence; 1000 g/h; evaluated after 13 days
# In short: (§1)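 Steps: sow seeds in standard soil; cultivate 1 d (pre-) or 8 d (post-emergence) at 24/16 °C, 14 h light, 65% humidity; spray 1000 g/h in acetone/water plus Tween 20; grow on, watering twice daily; score percentage damage after 13 d.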
# [2] = test system: Amaranthus retoflexus (AMARE); assay: Post-emergence herbicidal glasshouse test on Amaranthus retoflexus; conditions: post-emergence; 1000 g/h; evaluated after 13 days
# In short: as §1
# [3] = test system: Echinochloa crus-galli (ECHCG); assay: Post-emergence herbicidal glasshouse test on Echinochloa crus-galli; conditions: post-emergence; 1000 g/h; evaluated after 13 days
# In short: as §1
# Setaria faberi (SETFA) [4] = assay: Post-emergence herbicidal glasshouse test on Setaria faberi; conditions: post-emergence; 1000 g/h; evaluated after 13 days
# In short: as §1
# Solanum nigrum (SOLNI) [5] = assay: Post-emergence herbicidal glasshouse test on Solanum nigrum; conditions: post-emergence; 1000 g/h; evaluated after 13 days
# In short: as §1
# [6] = test system: Ipomoea hederacea (IPOHE); assay: Pre-emergence herbicidal glasshouse test on Ipomoea hederacea; conditions: pre-emergence; 1000 g/h; evaluated after 13 days
# In short: as §1
# [7] = test system: Amaranthus retoflexus (AMARE); assay: Pre-emergence herbicidal glasshouse test on Amaranthus retoflexus; conditions: pre-emergence; 1000 g/h; evaluated after 13 days
# In short: as §1
# Solanum nigrum (SOLNI) [8] = assay: Pre-emergence herbicidal glasshouse test on Solanum nigrum; conditions: pre-emergence; 1000 g/h; evaluated after 13 days
# In short: as §1
# [9] = test system: Alopecurus myosuroides (ALOMY); assay: Pre-emergence herbicidal glasshouse test on Alopecurus myosuroides; conditions: pre-emergence; 1000 g/h; evaluated after 13 days
# In short: as §1
# [10] = test system: Echinochloa crus-galli (ECHCG); assay: Pre-emergence herbicidal glasshouse test on Echinochloa crus-galli; conditions: pre-emergence; 1000 g/h; evaluated after 13 days
# In short: as §1
# Setaria faberi (SETFA) [11] = assay: Pre-emergence herbicidal glasshouse test on Setaria faberi; conditions: pre-emergence; 1000 g/h; evaluated after 13 days
# In short: as §1
# [12] = test system: Alopecurus myosuroides (ALOMY); assay: Post-emergence herbicidal glasshouse test on Alopecurus myosuroides; conditions: post-emergence; 1000 g/h; evaluated after 13 days
# In short: as §1
Compound,POST Application IPOHE herbicidal damage (five point scale) [1],POST Application AMARE herbicidal damage (five point scale) [2],POST Application ECHCG herbicidal damage (five point scale) [3],POST Application SETFA herbicidal damage (five point scale) (Setaria faberi (SETFA) [4]),POST Application SOLNI herbicidal damage (five point scale) (Solanum nigrum (SOLNI) [5]),PRE Application IPOHE herbicidal damage (five point scale) [6],PRE Application AMARE herbicidal damage (five point scale) [7],PRE Application SOLNI herbicidal damage (five point scale) (Solanum nigrum (SOLNI) [8]),PRE Application ALOMY herbicidal damage (five point scale) [9],PRE Application ECHCG herbicidal damage (five point scale) [10],PRE Application SETFA herbicidal damage (five point scale) (Setaria faberi (SETFA) [11]),POST Application ALOMY herbicidal damage (five point scale) [12]
CCOc1cccc(-c2c(C(F)(F)F)ccn(-c3cnn(C)c(=O)c3O)c2=O)c1 [Compound 7.016],1 (1=0-19% damage),5 (5=80-100% damage),2 (2=20-39% damage),2 (2=20-39% damage),5 (5=80-100% damage),1 (1=0-19% damage),5 (5=80-100% damage),5 (5=80-100% damage),2 (2=20-39% damage),2 (2=20-39% damage),2 (2=20-39% damage),2 (2=20-39% damage)
Cc1ccc(-c2cnn(C)c(=O)c2O)c(S(C)(=O)=O)c1 [Compound 2.031],5 (5=80-100% damage),5 (5=80-100% damage),5 (5=80-100% damage),5 (5=80-100% damage),5 (5=80-100% damage),3 (3=40-59% damage),5 (5=80-100% damage),5 (5=80-100% damage),4 (4=60-79% damage),5 (5=80-100% damage),5 (5=80-100% damage),4 (4=60-79% damage)
Cn1ncc(-c2ccc(Cl)cc2S(C)(=O)=O)c(O)c1=O [Compound 1.061],5 (5=80-100% damage),5 (5=80-100% damage),5 (5=80-100% damage),5 (5=80-100% damage),5 (5=80-100% damage),4 (4=60-79% damage),5 (5=80-100% damage),5 (5=80-100% damage),5 (5=80-100% damage),5 (5=80-100% damage),5 (5=80-100% damage),5 (5=80-100% damage)
Cn1ncc(-c2ccc(F)cc2[S+](C)[O-])c(O)c1=O (stereo not drawn) [Compound 1.057],5 (5=80-100% damage),5 (5=80-100% damage),5 (5=80-100% damage),5 (5=80-100% damage),5 (5=80-100% damage),2 (2=20-39% damage),5 (5=80-100% damage),5 (5=80-100% damage),5 (5=80-100% damage),5 (5=80-100% damage),5 (5=80-100% damage),5 (5=80-100% damage)
C=CCn1c(C(F)(F)F)ccc(-c2cnn(C)c(=O)c2O)c1=O [Compound 9.011],4 (4=60-79% damage),5 (5=80-100% damage),5 (5=80-100% damage),5 (5=80-100% damage),5 (5=80-100% damage),1 (1=0-19% damage),4 (4=60-79% damage),1 (1=0-19% damage),2 (2=20-39% damage),5 (5=80-100% damage),3 (3=40-59% damage),4 (4=60-79% damage)
CCn1ncc(-c2ccc(C(F)(F)F)cc2S(C)(=O)=O)c(O)c1=O [Compound 2.016],5 (5=80-100% damage),5 (5=80-100% damage),5 (5=80-100% damage),5 (5=80-100% damage),5 (5=80-100% damage),5 (5=80-100% damage),5 (5=80-100% damage),5 (5=80-100% damage),5 (5=80-100% damage),5 (5=80-100% damage),5 (5=80-100% damage),5 (5=80-100% damage)
COc1ccc(Cn2cccc(-c3cnn(C)c(=O)c3O)c2=O)cc1 [Compound 9.004],3 (3=40-59% damage),4 (4=60-79% damage),1 (1=0-19% damage),1 (1=0-19% damage),4 (4=60-79% damage),1 (1=0-19% damage),1 (1=0-19% damage),1 (1=0-19% damage),1 (1=0-19% damage),1 (1=0-19% damage),1 (1=0-19% damage),1 (1=0-19% damage)
Cc1cc(C#N)ccc1-c1cnn(C)c(=O)c1O [Compound 1.084],4 (4=60-79% damage),4 (4=60-79% damage),3 (3=40-59% damage),2 (2=20-39% damage),4 (4=60-79% damage),1 (1=0-19% damage),1 (1=0-19% damage),1 (1=0-19% damage),1 (1=0-19% damage),1 (1=0-19% damage),1 (1=0-19% damage),1 (1=0-19% damage)
Cn1ncc(-c2ccc(Cl)cc2C(F)(F)F)c(O)c1=O [Compound 1.113],5 (5=80-100% damage),5 (5=80-100% damage),2 (2=20-39% damage),3 (3=40-59% damage),5 (5=80-100% damage),2 (2=20-39% damage),5 (5=80-100% damage),4 (4=60-79% damage),1 (1=0-19% damage),1 (1=0-19% damage),1 (1=0-19% damage),2 (2=20-39% damage)
CCS(=O)(=O)c1ccccc1-c1cnn(COC)c(=O)c1O [Compound 2.004],5 (5=80-100% damage),5 (5=80-100% damage),5 (5=80-100% damage),5 (5=80-100% damage),5 (5=80-100% damage),4 (4=60-79% damage),5 (5=80-100% damage),5 (5=80-100% damage),5 (5=80-100% damage),5 (5=80-100% damage),5 (5=80-100% damage),3 (3=40-59% damage)
